For assay [1], the target named is inactive, unphosphorylated (0-phos), human IRAK4 FL (Full Length) (Homo sapiens (Human), UniProt Q9NWZ3). In words: IRAK4 Enzymatic DELFIA Assay, Protocol B. Particulars: 600 μM ATP (KM), full-length recombinant human IRAK4. The assay is classed as biochemical. The procedure:
IRAK4 Enzymatic DELFIA Assay, Protocol B.
The test compound is solubilized in DMSO to a stock concentration of 30 mM. The dose response plates were prepared with a 4 mM primary compound concentration, serialized in DMSO and spotted (1 μL) into 384-well polypropylene plates as before.
20 uL of 20 mM HEPES pH=7.5, 5 mM MgCl2, 0.0025% Brij-35, 600 μM ATP, and 100 nM ERM-biotinylated peptide (AGAGRDKYKTLRQIR) was added to start the reaction, which was run for 90 minutes at RT and stopped by the addition of 20 μL 0.3M EDTA.
(§1) 50 μL of the reaction mixture was transferred to a streptavidin-coated detection plate (DELFIA streptavidin coated plates, 384-well, white plates, Perkin-Elmer Life Sciences) and incubated for 30 minutes at RT. The plates were washed 4× with 75 μL per well of PBS containing 0.05% Tween-20. Plates were then incubated with 50 μL per well of antibody cocktail of Anti-pERM antibody at 0.125 μg/mL (Cell Signaling Technology), plus Anti-Rabbit IgG EuN1 at 0.25 μg/ml (Perkin-Elmer Life Sciences) in a solution of 10 mM MOPS pH=7.5, 150 mM NaCl, 0.05% Tween-20, 0.02% NaN3, 1% BSA, 0.1% Gelatin for 45 minutes. The plates were then washed as before. 50 μL per well of DELFIA Enhancement Solution (Perkin-Elmer Life Sciences) was added to the plate and incubated for 15 minutes at RT prior to being read on an Envision Model 2104 multi-label reader using a 340 nm excitation wavelength and a […] emission wavelength for detection.

Assay [2] addresses human IRAK4 FL (Full Length), phosphorylated (Homo sapiens (Human), UniProt Q9NWZ3). In words: IRAK4 Enzymatic DELFIA Assay, Protocol A. The assay is classed as biochemical. Particulars: 600 μM ATP (KM); full-length phosphorylated recombinant human IRAK4. The procedure:
IRAK4 Enzymatic DELFIA Assay, Protocol A.
This is an in vitro assay to measure IRAK4 enzymatic activity utilizing the DELFIA (Dissociation-Enhanced Lanthanide Fluorescent Immunoassay, Perkin-Elmer) platform, with the human IRAK4 FL (Full Length) construct to characterize IRAK4 inhibitor and control compounds at 600 μM ATP (KM). The final amount of enzyme in the assay is 0.1 nM IRAK4 FL, final concentration of substrate is 50 nM, and final concentration of DMSO is 2.5%.
The test compound was solubilized in DMSO to a stock concentration of 30 mM. The dose response plates were prepared with a 4 mM primary compound concentration (40-fold multiple of the final in-assay concentration), and diluted in DMSO in a four-fold series for a total of 11 data points. 1 μL of the compound dilution plate is spotted into ultra-clear polypropylene, 384-well, U-bottom plates (Corning Life Sciences).
To begin the assay, 19 μL of reaction mixture containing 20 mM HEPES pH=7.5, 5 mM MgCl2, 0.0025% Brij-35, 600 μM ATP, 0.21 nM Full-length phosphorylated recombinant human IRAK4 (GenBank ID AF445802) are aliquoted into the polypropylene, 384-well, U-bottom plates containing 1 μL of test compound, mixed briefly and incubated for 20 minutes at room temperature (RT). Then, 20 μL of 20 mM HEPES pH=7.5, 5 mM MgCl2, 0.0025% Brij-35, 600 μM ATP, and 100 nM ERM-biotinylated peptide (AGAGRDKYKTLRQIR) is added to start the reaction. The reaction is incubated for 60 minutes at RT and stopped by the addition of 20 μL 0.3M EDTA.
as §1

Chain of human IRAK4 FL (Full Length), phosphorylated (Q9NWZ3 whole entry): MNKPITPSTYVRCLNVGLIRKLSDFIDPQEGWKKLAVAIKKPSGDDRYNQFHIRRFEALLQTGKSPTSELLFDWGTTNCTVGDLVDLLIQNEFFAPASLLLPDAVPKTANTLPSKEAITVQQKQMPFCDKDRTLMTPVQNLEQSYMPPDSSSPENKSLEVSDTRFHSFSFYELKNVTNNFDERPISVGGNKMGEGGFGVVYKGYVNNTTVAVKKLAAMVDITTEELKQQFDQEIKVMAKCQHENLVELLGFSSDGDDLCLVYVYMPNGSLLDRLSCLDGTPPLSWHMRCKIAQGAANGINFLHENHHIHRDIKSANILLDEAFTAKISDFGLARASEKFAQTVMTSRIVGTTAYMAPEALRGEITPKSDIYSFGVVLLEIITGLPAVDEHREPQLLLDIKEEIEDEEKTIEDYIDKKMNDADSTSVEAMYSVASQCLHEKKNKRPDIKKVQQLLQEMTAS
Chain of inactive, unphosphorylated (0-phos), human IRAK4 FL (Full Length) (Q9NWZ3 whole entry): as above

On to `CC[C@@H]1[C@H](F)C(=O)N[C@@H]1COc1cccc2cc(C(N)=O)c(OC)cc12` [Example 27, 5-(((2S,3S,4S)-3-ethyl-4-fluoro-5-oxopyrrolidin-2-yl)methoxy)-3-methoxy-2-naphthamide], for which the 50% inhibitory concentration (IC50) – broadly, the concentration needed to halve the response being measured – came to 0.1 nM in assay [1] and 0.8 nM in assay [2].

For `COc1cc2c(OC[C@]34C[C@H]3CC(=O)N4)nccc2cc1C(N)=O` [Example 30, 7-methoxy-1-{[(1S,5S)-3-oxo-2-azabicyclo[3.1.0]hex-1-yl]methoxy}isoquinoline-6-carboxamide], the results for the IC50 in assay [1] and in assay [2] were 151 nM and 4300 nM, respectively.

As to `CC[C@@H]1CC(=O)N[C@@H]1COc1ncc(NS(=O)(=O)c2cn(C)c(C)n2)c2cc(C(N)=O)c(OC(C)C)cc12` [Example 14, 4-{[(1,2-Dimethyl-1H-imidazol-4-yl)sulfonyl]amino}-1-{[(2S,3R)-3-ethyl-5-oxopyrrolidin-2-yl]methoxy}-7-(propan-2-yloxy)isoquinoline-6-carboxamide], the IC50 stood at 15000 nM in assay [1] and 29000 nM in assay [2].

Consider `Cc1coc(-c2cnc(OC[C@@H]3CCC(=O)N3)c3cc(OC(C)C)c(C(N)=O)cc23)n1` [Example 6, 4-(4-Methyl-1,3-oxazol-2-yl)-1-{[(2S)-5-oxopyrrolidin-2-yl]methoxy}-7-(propan-2-yloxy)isoquinoline-6-carboxamide], for which the IC50 in assay [1] was found to be 3 nM; in assay [2] it was 227 nM.

Regarding `CC(C)Oc1cc2c(OC[C@@H]3NC(=O)[C@H](F)C34CC4)nccc2cc1C(N)=O` [Example 18, 1-(((4R,7R)-7-fluoro-6-oxo-5-azaspiro[2.4]heptan-4-yl)methoxy)-7-isopropoxyisoquinoline-6-carboxamide], the 50% inhibitory concentration (IC50) in assay [1] is 870 nM; in assay [2], 16000 nM.

For `COc1cc2c(OC[C@@H]3NC(=O)[C@@H](F)C34CC4)nccc2cc1C(N)=O` [Example 22, 1-(((4R,7S)-7-fluoro-6-oxo-5-azaspiro[2.4]heptan-4-yl)methoxy)-7-methoxyisoquinoline-6-carboxamide], the values for the half-inhibitory concentration (IC50) in assay [1] and in assay [2] were 1700 nM and 26000 nM, respectively.

Consider `CC(C)Oc1cc2c(OC[C@@H]3CCC(=O)N3)ncc(-c3ncco3)c2cc1C(N)=O` [Example 2, 4-(1,3-Oxazol-2-yl)-1-{[(2S)-5-oxopyrrolidin-2-yl]methoxy}-7-(propan-2-yloxy)isoquinoline-6-carboxamide], for which the IC50 stood at 4 nM in assay [1] and 188 nM in assay [2].

On to `CC[C@@H]1CC(=O)N[C@@H]1COc1cncc2cc(C(N)=O)c(OC)cc12` [Example 25, 4-(((2S,3R)-3-ethyl-5-oxopyrrolidin-2-yl)methoxy)-6-methoxyisoquinoline-7-carboxamide], for which the figures for the IC50 in assay [1] and in assay [2] were 2.7 nM and 47 nM, respectively.

In the case of `CNC(=O)c1cc2ccnc(OC[C@H]3NC(=O)[C@@H](F)[C@H]3C)c2cc1OC` [Example 33, 1-(((2S,3S,4S)-4-fluoro-3-methyl-5-oxopyrrolidin-2-yl)methoxy)-7-methoxy-N-methylisoquinoline-6-carboxamide], the half-maximal inhibitory concentration (IC50) in assay [1] was determined as 2000 nM.

Consider `CC(C)Oc1cc2c(OC[C@H]3NC(=O)[C@@H](F)C34CC4)nccc2cc1C(N)=O` [Example 19, 1-(((4S,7S)-7-fluoro-6-oxo-5-azaspiro[2.4]heptan-4-yl)methoxy)-7-isopropoxyisoquinoline-6-carboxamide], for which the figures for the half-maximal inhibitory concentration (IC50) in assay [1] and in assay [2] were 0.6 nM and 5.4 nM, respectively.

Regarding `COc1cc2c(OC[C@H]3NC(=O)[C@H](F)C34CC4)nccc2cc1C(N)=O` [Example 21, 1-(((4S,7R)-7-fluoro-6-oxo-5-azaspiro[2.4]heptan-4-yl)methoxy)-7-methoxyisoquinoline-6-carboxamide], the IC50 in assay [1] amounted to 21 nM; in assay [2] it was 38.5 nM.

As for `NC(=O)c1cc2ccnc3c2cc1OCCOC[C@H]1C[C@@H](CO3)NC1=O` [Example 28, (3S,6R)-5-oxo-2,3,4,5,6,7,9,10-octahydro-12,14-(ethanediylidene)-3,6-methanopyrido[2,3-l][1,4,11,8]trioxazacyclopentadecine-19-carboxamide], in assay [2], the half-inhibitory concentration (IC50) came out at 1900 nM.

Consider `CC[C@@H]1[C@H](F)C(=O)N[C@@H]1COc1nccc2nc(C(N)=O)c(OC)cc12` [Example 32, 5-{[(2S,3S,4S)-3-ethyl-4-fluoro-5-oxopyrrolidin-2-yl]methoxy}-3-methoxy-1,6-naphthyridine-2-carboxamide], for which the half-inhibitory concentration (IC50) in assay [1] came out at 4.5 nM; in assay [2], 27 nM.

Take `CC[C@@H]1CC(=O)N[C@@H]1COc1ncc(NS(=O)(=O)c2ccccc2)c2cc(C(N)=O)c(OC(C)C)cc12` [Example 10, 1-{[(2S,3R)-3-ethyl-5-oxopyrrolidin-2-yl]methoxy}-4-[(phenylsulfonyl)amino]-7-(propan-2-yloxy)isoquinoline-6-carboxamide]: the half-inhibitory concentration (IC50) in assay [1] is 5700 nM; in assay [2], over 100000 nM.

With `Cc1nc(-c2cnc(OC[C@@H]3CCC(=O)N3)c3cc(OC(C)C)c(C(N)=O)cc23)oc1C` [Example 7, 4-(4,5-Dimethyl-1,3-oxazol-2-yl)-1-{[(2S)-5-oxopyrrolidin-2-yl]methoxy}-7-(propan-2-yloxy)isoquinoline-6-carboxamide], the IC50 in assay [1] is 3.2 nM; in assay [2] it was 57 nM.

Regarding `COc1cc2c(OC[C@@H]3NC(=O)[C@H](F)C34CC4)nccc2cc1C(N)=O` [Example 23, 1-(((4R,7R)-7-fluoro-6-oxo-5-azaspiro[2.4]heptan-4-yl)methoxy)-7-methoxyisoquinoline-6-carboxamide], the 50% inhibitory concentration (IC50) worked out at 110 nM in assay [1] and 1450 nM in assay [2].

As for `CC(C)Oc1cc2c(OC[C@@H]3CCC(=O)N3)ncc(-c3cnn(C)c3)c2cc1C(N)=O` [Example 5, 4-(1-methyl-1H-pyrazol-4-yl)-1-{[(2S)-5-oxopyrrolidin-2-yl]methoxy}-7-(propan-2-yloxy)isoquinoline-6-carboxamide], the 50% inhibitory concentration (IC50) in assay [1] is 1.1 nM; in assay [2], 3.7 nM.

For the molecule `COc1cc2c(OCC34CC3CC(=O)N4)nccc2cc1C(N)=O` (racemic) [Example 29, 7-methoxy-1-[(3-oxo-2-azabicyclo[3.1.0]hex-1-yl)methoxy]isoquinoline-6-carboxamide], the IC50 in assay [1] was determined as 350 nM; in assay [2], 4200 nM.

In the case of `COc1cc2c(OC[C@H]3NC(=O)[C@@H](F)C34CC4)nccc2cc1C(N)=O` [Example 24, 1-(((4S,7S)-7-fluoro-6-oxo-5-azaspiro[2.4]heptan-4-yl)methoxy)-7-methoxyisoquinoline-6-carboxamide], the half-maximal inhibitory concentration (IC50) was 0.8 nM in assay [1] and 5.2 nM in assay [2].

Regarding `CC[C@@H]1CC(=O)N[C@@H]1COc1ncc(NS(=O)(=O)c2cn(C)cn2)c2cc(C(N)=O)c(OC(C)C)cc12` [Example 13, 1-{[(2S,3R)-3-Ethyl-5-oxopyrrolidin-2-yl]methoxy}-4-{[(1-methyl-1H-imidazol-4-yl)sulfonyl]amino}-7-(propan-2-yloxy)isoquinoline-6-carboxamide], the IC50 in assay [1] is 12000 nM; in assay [2] it was over 100000 nM.

For the molecule `CC(C)Oc1cc2c(OC[C@@H]3CCC(=O)N3)ncc(-c3nc(CO)c[nH]3)c2cc1C(N)=O` [Example 8, 4-[4-(Hydroxymethyl)-1H-imidazol-2-yl]-1-{[(2S)-5-oxopyrrolidin-2-yl]methoxy}-7-(propan-2-yloxy)isoquinoline-6-carboxamide], the IC50 in assay [1] worked out at 190 nM; in assay [2], 2100 nM.

For the molecule `Cc1cnc(-c2cnc(OC[C@@H]3CCC(=O)N3)c3cc(OC(C)C)c(C(N)=O)cc23)o1` [Example 9, 4-(5-Methyl-1,3-oxazol-2-yl)-1-{[(2S)-5-oxopyrrolidin-2-yl]methoxy}-7-(propan-2-yloxy)isoquinoline-6-carboxamide], the half-inhibitory concentration (IC50) in assay [1] was 4.3 nM; in assay [2], 89 nM.

For the origin of these results see patent publication US10174000B2, “Bicyclic-fused heteroaryl or aryl compounds as IRAK4 modulators” (PFIZER INC., priority 2015, dated 2019).
